In BigSolDB 2.1:

For `CC(=O)N1CCC[C@H]1C(=O)O`, the solubility (mole fraction) (in 1,4-dioxane, 288.15 K) was 0.0237, the solubility (mole fraction) (in 1,4-dioxane, 293.15 K) was 0.0291 and the solubility (mole fraction) (in 1,4-dioxane, 303.15 K) was 0.0416. It also gave a solubility (mole fraction) (in 1,4-dioxane, 313.15 K) of 0.0673, a solubility (mole fraction) (in 1,4-dioxane, 323.15 K) of 0.13 and a solubility (mole fraction) (in 2-butanone, 283.15 K) of 0.0113. It also gave a solubility (mole fraction) (in 2-butanone, 293.15 K) of 0.0161, a solubility (mole fraction) (in 2-butanone, 303.15 K) of 0.0237 and a solubility (mole fraction) (in 2-butanone, 313.15 K) of 0.0339. It also gave a solubility (mole fraction) (in 2-butanone, 323.15 K) of 0.0553, a solubility (mole fraction) (in acetone, 283.15 K) of 0.0158 and a solubility (mole fraction) (in acetone, 293.15 K) of 0.0247. It also gave a solubility (mole fraction) (in acetone, 303.15 K) of 0.0348, a solubility (mole fraction) (in acetone, 313.15 K) of 0.0484 and a solubility (mole fraction) (in acetone, 323.15 K) of 0.0673. For the same compound, the solubility (mole fraction) (in acetonitrile, 283.15 K) was 0.0159, the solubility (mole fraction) (in acetonitrile, 293.15 K) was 0.0335 and the solubility (mole fraction) (in acetonitrile, 303.15 K) was 0.0558. It also gave a solubility (mole fraction) (in acetonitrile, 313.15 K) of 0.131, a solubility (mole fraction) (in acetonitrile, 323.15 K) of 0.255 and a solubility (mole fraction) (in dichloromethane, 283.15 K) of 0.0336. It also gave a solubility (mole fraction) (in dichloromethane, 288.15 K) of 0.0448, a solubility (mole fraction) (in dichloromethane, 293.15 K) of 0.0609 and a solubility (mole fraction) (in dichloromethane, 298.15 K) of 0.0785. It also gave a solubility (mole fraction) (in dichloromethane, 303.15 K) of 0.0974, a solubility (mole fraction) (in ethanol, 283.15 K) of 0.0754 and a solubility (mole fraction) (in ethanol, 293.15 K) of 0.111. It also gave a solubility (mole fraction) (in ethanol, 303.15 K) of 0.156, a solubility (mole fraction) (in ethanol, 313.15 K) of 0.219 and a solubility (mole fraction) (in ethanol, 323.15 K) of 0.278. It also gave a solubility (mole fraction) (in ethyl acetate, 283.15 K) of 0.00368, a solubility (mole fraction) (in ethyl acetate, 293.15 K) of 0.00634 and a solubility (mole fraction) (in ethyl acetate, 303.15 K) of 0.0096. It also gave a solubility (mole fraction) (in ethyl acetate, 313.15 K) of 0.0133, a solubility (mole fraction) (in ethyl acetate, 323.15 K) of 0.0201 and a solubility (mole fraction) (in isobutanol, 283.15 K) of 0.0448. It also gave a solubility (mole fraction) (in isobutanol, 293.15 K) of 0.0643, a solubility (mole fraction) (in isobutanol, 303.15 K) of 0.106 and a solubility (mole fraction) (in isobutanol, 313.15 K) of 0.146. It also gave a solubility (mole fraction) (in isobutanol, 323.15 K) of 0.2, a solubility (mole fraction) (in isopropanol, 283.15 K) of 0.0448 and a solubility (mole fraction) (in isopropanol, 293.15 K) of 0.0732. The solubility (mole fraction) (in isopropanol, 303.15 K) was 0.099, the solubility (mole fraction) (in isopropanol, 313.15 K) was 0.143 and the solubility (mole fraction) (in isopropanol, 323.15 K) was 0.177. The solubility (mole fraction) (in methanol, 283.15 K) was 0.122, the solubility (mole fraction) (in methanol, 293.15 K) was 0.166 and the solubility (mole fraction) (in methanol, 303.15 K) was 0.21. The solubility (mole fraction) (in methanol, 313.15 K) was 0.291, the solubility (mole fraction) (in methanol, 323.15 K) was 0.406 and the solubility (mole fraction) (in methyl acetate, 283.15 K) was 0.00602. For the same compound, the solubility (mole fraction) (in methyl acetate, 293.15 K) was 0.00997, the solubility (mole fraction) (in methyl acetate, 303.15 K) was 0.0147 and the solubility (mole fraction) (in methyl acetate, 313.15 K) was 0.0213. For the same compound, the solubility (mole fraction) (in methyl acetate, 323.15 K) was 0.0322, the solubility (mole fraction) (in n-butanol, 283.15 K) was 0.0412 and the solubility (mole fraction) (in n-butanol, 293.15 K) was 0.059. It also gave a solubility (mole fraction) (in n-butanol, 303.15 K) of 0.0877, a solubility (mole fraction) (in n-butanol, 313.15 K) of 0.133 and a solubility (mole fraction) (in n-butanol, 323.15 K) of 0.199. The solubility (mole fraction) (in n-pentanol, 283.15 K) was 0.0377, the solubility (mole fraction) (in n-pentanol, 293.15 K) was 0.0532 and the solubility (mole fraction) (in n-pentanol, 303.15 K) was 0.075. The solubility (mole fraction) (in n-pentanol, 313.15 K) was 0.111, the solubility (mole fraction) (in n-pentanol, 323.15 K) was 0.158 and the solubility (mole fraction) (in n-propanol, 283.15 K) was 0.0961. It also gave a solubility (mole fraction) (in n-propanol, 293.15 K) of 0.14, a solubility (mole fraction) (in n-propanol, 303.15 K) of 0.195 and a solubility (mole fraction) (in n-propanol, 313.15 K) of 0.267. It also gave a solubility (mole fraction) (in n-propanol, 323.15 K) of 0.334, a solubility (mole fraction) (in sec-butanol, 283.15 K) of 0.0429 and a solubility (mole fraction) (in sec-butanol, 293.15 K) of 0.062. The solubility (mole fraction) (in sec-butanol, 303.15 K) was 0.0915, the solubility (mole fraction) (in sec-butanol, 313.15 K) was 0.132 and the solubility (mole fraction) (in sec-butanol, 323.15 K) was 0.189. The solubility (mole fraction) (in water, 283.15 K) was 0.0127, the solubility (mole fraction) (in water, 293.15 K) was 0.0188 and the solubility (mole fraction) (in water, 303.15 K) was 0.0269. The solubility (mole fraction) (in water, 313.15 K) was 0.042 and the solubility (mole fraction) (in water, 323.15 K) was 0.0738.
